Reference: patent US20230132823A1, “BI-FUNCTIONAL COMPOUNDS AND METHODS FOR TARGETED UBIQUITINATION OF ANDROGEN RECEPTOR” (MONTELINO THERAPEUTICS, INC., priority 2020, published 2023)
Where two headings read alike, the source gives them in different places. Where a SMILES comes first, the peptide text is derived from it. [ ]: non-standard residue; d: D form. The star is where a group is joined. ξ: configuration not given here. X1 = O=C(COc1c(-c2csc(N3CCOCC3)n2)ccc(F)c1F)NCCCCCCN*; Dip = N[C@H](C(=O)O)C(c1ccccc1)c1ccccc1; Chg = N[C@H](C(=O)O)C1CCCCC1; NMeA = CN[C@@H](C)C(=O)O; ξP = O=C(O)C1CCCN1

Columns and labels:
22Rv1 = 22Rv1 cell proliferation assay (Experimental Example 1, cell count); assay type: cell-based; conditions: Homo sapiens, 22Rv1, read-out: 22Rv1 cell count decrease at 10 μM for 48 hours; 10 μM (method: four days); read-out: 22Rv1 cell count decrease at 10 μM
Outline: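 Human prostate cancer 22Rv1 cells, reported to express high levels of AR-V7, were grown in RPMI-1640 containing 10% fetal bovine serum. Test compounds were first dissolved in DMSO as 50 mM stock solutions and then diluted to the required concentrations. Proliferation was assessed as the percentage decrease in cell count.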

[1] = tested on: 22Rv1-Enz^R tumor xenografts; assay: 22Rv1-Enz^R tumor xenograft in castrated nu/nu mice; assay type: in vivo; conditions: for tumor mass at 7 weeks: control approx. 1500 mm^3
Procedure: In Vivo Study. To explore the therapeutic potential of Test Compound, 22Rv1, 22Rv1-Enz^R, VCaP, and VCaP-Enz^R are injected into nu/nu immunodeficient mice. When the resulting tumors reached an average size of 3 mm in diameter, all animals are surgically castrated via bilateral orchiectomy and divided into four groups of five mice each. For anesthesia, 3% isoflurane gas inhalation is used. Tumor size was measured using calipers and tumor volume was calculated using the formula: tumor volume=length×width^2[…].
Mice are then treated daily with Test Compound with or without enzalutamide via the indicated route (intratumoral, intraperitoneal, or oral) for five to six weeks. At the end of the study, all animals are sacrificed and tumors are harvested and analyzed. Statistical significance is calculated using the Student's t-test for paired comparisons of experimental groups and, where appropriate, by Wilcoxon rank sum test, and by 2-way ANOVA. In vitro experiments are repeated a minimum of three times.
(§1) The in vivo effects of the Compound of Example 16 are assessed in mice using enzalutamide-resistant CaP xenografts. First, 22Rv1-Enz^R tumor xenografts are established in nu/nu mice. Upon CaP xenograft formation (average diameter of 3 mm), mice are randomized into controls or treatment. Control mice are treated with 100 μl vehicle containing 10 mg/ml enzalutamide (n=5). The treatment group is injected with 100 μl vehicle containing 2.5 mg/ml Compound of Example 16 and 10 mg/ml enzalutamide daily directly into tumors (n=5) and tumor volumes were followed. […] Tumors are harvested and analyzed at the end of the study period.

AR-V7 = biological target: T1, AR-V7 (Homo sapiens, UniProt P10275); assay: Immunoblot analysis of AR-V7 protein in CaP cells (Experimental Example 3); assay type: cell-based; set-up: endogenous in cells; host or cells: 22Rv1 (also VCaP, LNCaP and SAT-resistant sublines)
T1 sequence (P10275 1-644 isoform P10275-3): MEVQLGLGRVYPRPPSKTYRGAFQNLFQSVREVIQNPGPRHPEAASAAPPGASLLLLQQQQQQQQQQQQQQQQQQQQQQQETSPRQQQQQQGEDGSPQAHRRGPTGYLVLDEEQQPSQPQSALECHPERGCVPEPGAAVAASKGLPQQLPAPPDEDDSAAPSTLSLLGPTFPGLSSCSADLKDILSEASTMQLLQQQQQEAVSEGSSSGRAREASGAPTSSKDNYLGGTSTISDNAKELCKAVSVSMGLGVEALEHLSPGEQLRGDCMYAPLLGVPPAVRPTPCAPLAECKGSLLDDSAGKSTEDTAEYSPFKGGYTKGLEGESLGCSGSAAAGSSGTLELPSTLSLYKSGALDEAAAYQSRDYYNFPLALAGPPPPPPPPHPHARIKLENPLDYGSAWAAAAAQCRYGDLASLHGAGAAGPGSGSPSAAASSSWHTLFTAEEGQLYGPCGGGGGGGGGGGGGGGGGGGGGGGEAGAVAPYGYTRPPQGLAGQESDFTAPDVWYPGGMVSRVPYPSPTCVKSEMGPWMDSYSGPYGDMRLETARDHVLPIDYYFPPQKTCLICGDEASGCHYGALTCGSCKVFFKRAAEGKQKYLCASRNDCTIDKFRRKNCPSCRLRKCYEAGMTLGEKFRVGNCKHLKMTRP
Procedure: Cell Culture. Human CaP cell lines, LNCaP, 22Rv1, VCaP, PC3, and DU145 are obtained from the American Type Culture Collection (ATCC) and maintained in the standard culture media: RPMI-1640 supplemented with 10% fetal bovine serum (FBS). LNCaP, 22Rv1, and VCaP are androgen-responsive cell lines, while PC3 and DU145 are not. To establish SAT resistant CaP cell lines, LNCaP, 22Rv1, and VCaP are treated continuously with 10-50 μM abiraterone, apalutamide, darolutamide, or enzalutamide. After 3-6 months, stable cell lines are established and designated as LNCaP-Abi^R, LNCaP-Apa^R, LNCaP-Daro^R, LNCaP-Enz^R, VCaP-Abi^R, VCaP-Apa^R, VCaP-Daro^R, VCaP-Enz^R, 22Rv1-Abi^R, 22Rv1-Apa^R, 22Rv1-Daro^R and 22Rv1-Enz^R. Unless otherwise specified, the standard culture media for these SAT-resistant cell lines included 10 μM of their respective SAT. For the proteasome inhibitor study, the inhibitors MG132 and Epoxomicin are used. The E3 ligase inhibitors Heclin, Nutlin 3a, Thalidomide, and VH298 are used. Cell lines obtained from ATCC are confirmed by checking their morphology using optical microscopy, establishing baselines for cell proliferation, verifying species of origin using isoenzymology, and characterizing the cell's DNA fingerprint using short tandem repeat (STR) profiling. Mycoplasma contamination is also assessed using a PCR based detection system.
Immunoblot Analysis. CaP cells are collected and lysed with the lysis buffer (20 mM Tris-HCl (pH 7.5), 150 mM NaCl, 1 mM Na2EDTA, 1 mM EGTA, 1% Triton, 2.5 mM sodium pyrophosphate, 1 mM beta-glycerophosphate, 1 mM Na3VO4, and 1 μg/ml leupeptin) containing 1 mM phenylmethylsulfonyl fluoride (PMSF). Cell lysates are then centrifuged and protein in the supernatant is quantified. After separating 25-50 μg of protein using SDS-PAGE, samples are incubated with AR-V7, GR, PR, ERα, AR-FL, ubiquitin, or β-actin antibodies. For AR-V7, AR-FL, PR, GR, and ERα immunoblots, primary antibody is diluted 1:1000 in 5% skim milk. For the β-actin immunoblot, 1:10000 diluted primary antibody is used. All membranes are incubated overnight at 4° C. Following the incubation with appropriate secondary antibody, immunoblots are analyzed using SuperSignal West Femto Maximum Sensitivity Substrate (ThermoFisher).

[2] = Body weight of tumor-bearing mice during treatment; assay type: in vivo
Procedure: as §1
Enzalutamide-resistant CaP tumor xenografts are established in twelve mice and three each are assigned to the following four groups: control IP (vehicle), control oral (vehicle), 8.3 mg/kg IP, and 8.3 mg/kg oral. Because these cells are resistant to enzalutamide, all animals are administered enzalutamide.

| Structure (SMILES) | inhibition at 10 µM (22Rv1) [%] | tumor mass at 7 weeks ([1]; 0.83 mg/kg) [mm^3] | tumor mass at 7 weeks ([1]; 8.3 mg/kg) [mm^3] | DC50 (AR-V7; 24 hours, immunoblot, read-out: DC50, concentration at which 50% of AR-V7 is degraded in 24 hours) [nM] | changes in animal body mass ([2]; 22Rv1-Enz^R tumors, 8.3 mg/kg and 0.83 mg/kg, 7 weeks) | tumor volume at the end of 5 weeks ([1]; intratumoral daily, 100 μl of 2.5 mg/ml compound plus 10 mg/ml enzalutamide, control 800 mm^3) | AR-V7 degradation after pretreatment with proteasome inhibitors (AR-V7; 22Rv1, 2 hours MG-132 (5 μM) and epoxomicin (1 μM), then compound at 1 μM) | DC50 (AR-V7; 22Rv1, 24 hours, immunoblot, read-out: DC50, concentration at which 50% of AR-V7 degraded in 24 hours) [nM] | AR-V7 degradation after pretreatment with E3 ubiquitin ligase inhibitors (AR-V7; 22Rv1, two hours VH 298 20 μM, heclin 10 μM, nutlin 3a 0.1 μM or thalidomide 10 μM, then compound at 1 μM) | concentration from which AR-V7 protein expression is decreased (immunoblot) (AR-V7; 22Rv1 cells, 24 hours, 0, 0.01, 0.1, 1 and 10 μM tested) [µM] | AR-V7 protein expression level in parental and SAT-resistant 22Rv1, VCaP and LNCaP cells (AR-V7; immunoblot, effect on AR-V7 greater than on AR-FL) | change in weight following treatment ([2]; 8.3 mg/kg systemic dosing, four weeks) | weight of the mice during treatment ([2]; intratumoral, 22Rv1-Enz^R xenograft, 5 weeks) |
| --- | --- | --- | --- | --- | --- | --- | --- | --- | --- | --- | --- | --- | --- |
| CN[C@@H](C)C(=O)N[C@H](C(=O)N1CCCC1C(=O)N[C@H](C(=O)NCCCCCCNC(=O)COc1c(-c2csc(N3CCOCC3)n2)ccc(F)c1F)C(c1ccccc1)c1ccccc1)C1CCCCC1 (stereo partly drawn) [Example 26, (S)-1-((S)-2-cyclohexyl-2-((S)-2-(methylamino)propanamido)acctyl)-N-((S)-1-((6-(2-(2,3-difluoro-6-(2-morpholinothiazol-4-yl)phenoxy)acetamido)hexyl)amino)-1-oxo-3,3-diphenylpropan-2-yl)pyrrolidine-2-carboxamide] (H-[NMeA][Chg][ξP][Dip]-X1) | > 50 | < 600 | < 600 | < 50 | No significant changes | – | – | – | – | – | – | – | – |
| Cc1ncsc1-c1ccc([C@H](C)NC(=O)[C@@H]2C[C@@H](O)CN2C(=O)[C@@H](NC(=O)CCCCNC(=O)COc2c(-c3csc(N4CCOCC4)n3)ccc(F)c2F)C(C)(C)C)cc1 [Example 16, (2S,4R)-1-((S)-2-(5-(2-(2,3-difluoro-6-(2-morpholinothiazol-4-yl)phenoxy)acetamido)pentanamido)-3,3-dimethylbutanoyl)-4-hydroxy-N-((S)-1-(4-(4-methylthiazol-5-yl)phenyl)ethyl)pyrrolidine-2-carboxamide] | < 50 | – | – | – | – | approximately 500 mm^3 | completely blocked | 370 | only VH298 pretreatment inhibits AR-V7 degradation | 0.1 | decreases the protein expression levels | no significant change in weight | did not significantly change |
